Read-outs that look alike come from different tables or passages of the source.
Key:
[1] = system: patients with WD
Description: Example 1 was an open-label multicenter single-arm phase 2 trial conducted in 28 adults with a diagnosis of WD established by a Leipzig score of ≥4.
Data were collected from the first 72 weeks of the extension period for the following parameters: (a) NCC levels, corrected for bound copper contained in tetrathiomolybdate-copper-albumin complexes (NCCcorrected); (b) Liver status, measured using standard laboratory measures and also by Model for End-Stage Liver Disease (MELD) score (based on bilirubin, creatinine and international normalized ratio [INR]); (c) Patient-reported disability using Unified Wilson Disease Rating Scale (UWDRS) part II, and neurological status using UWDRS part III; and (d) Safety is shown below.

[2] = system: patients with Wilson disease
Procedure: Changes in neurological status were characterized using the Unified Wilson's Disease Rating Scale (UWDRS).
Patients were excluded if they had decompensated hepatic cirrhosis, a model for end-stage liver disease (MELD) score >11, or a modified Nazer score (revised King's score)>6.
The 24-week, phase 2, open-label study was conducted in Europe and the USA. […] Thereafter, dosing was tailored according to laboratory (including NCC concentrations adjusted for plasma molybdenum) and clinical assessments (maximum daily dose administered: 120 mg).
Disability and neurological status were assessed using parts II and III, respectively, of the UWDRS at baseline and weeks 4, 8, 12, 18, and 24: Disability (part II): 10-item patient-reported questionnaire (range for total scores: 0-40; higher scores indicate greater disability). Neurological status (part III): 23-item clinician-assessed score (range for total scores: 0-143; higher scores indicate worse neurological status). Data (total scores for UWDRS parts II and III, and AEs) are summarized briefly for context in Results.
UWDRS neurological status scores at baseline, week 24, and change from baseline to week 24 were calculated for: any individual item experienced by at least 50% of patients; and for item groups (i.e. collections of individual items that could be considered to represent particular patient phenotypes [Table 11]).
Least-squares mean (standard error [SE], 95% confidence intervals [CIs]) values were calculated for changes from baseline for UWDRS total scores using a mixed-model repeated-measures analysis; significance was assessed using two-sided p values. To investigate and quantify the relationship between UWDRS total scores for parts II and III, a random coefficients analysis was conducted using each patient's scores from all study visits. Summary statistics were calculated for other outcomes.

[3] = system: Wilson disease patients with and without cirrhosis
Procedure: Mortality in Wilson disease is usually secondary to decompensated hepatic cirrhosis and liver failure; therefore, liver function is an important factor in determining appropriate treatment regimens. The outcome of patients with and without cirrhosis using in the patient pool of Example 1, supplemented with week 48 data generated in the 3-year extension phase of the initial trial, was analyzed.
For the analyses described in this example, patients were characterized as having cirrhosis based on medical history (biopsy or imaging) or based on estimates of AST to Platelet Ratio Index (APRI) (AST refers to aspartate aminotransferase). Summary statistics were calculated for Baseline demographics, NCCcorr levels, ALT levels, MELD and modified Nazer scores, Albumin concentration, International normalized ratio (INR), Disability and neurological status using the unified Wilson's disease rating scale, and adverse events (AEs). […] Patient flow for the extension study is depicted in FIG. 12.

[4] = of 22 patients, baseline to week 24
[5] = core study, patients without cirrhosis
[6] = extension phase, with cirrhosis

C[N+](C)(C)CCO.C[N+](C)(C)CCO.[SH-].[SH-].[S]=[Mo]=[S] [WTX101, bis-choline tetrathiomolybdate]
Relationship to the study drug as deemed by the investigator: Acute lower back pain (week 37) ([1]; SAE after week 24): Unrelated | Relationship to the study drug as deemed by the investigator: Dizziness (week 113) ([1]; SAE after week 24): Possible | Relationship to the study drug as deemed by the investigator: Loss of consciousness (week 113) ([1]; SAE after week 24): Possible | Relationship to the study drug as deemed by the investigator: Mania (week 38) ([1]; SAE after week 24): Unlikely | Relationship to the study drug as deemed by the investigator: Neutropenia (week 36) ([1]; SAE after week 24): Possible | Relationship to the study drug as deemed by the investigator: Exacerbation of WD (week 46) ([1]; SAE after week 24, likely due to disease progression): Possible | SAE Acute lower back pain (week 37), number of patients ([1]; after week 24): 1 | SAE Dizziness (week 113), number of patients ([1]; after week 24): 1 | SAE Exacerbation of WD (week 46), number of patients ([1]; after week 24): 1 | SAE Loss of consciousness (week 113), number of patients ([1]; after week 24): 1 | SAE Mania (week 38), number of patients ([1]; after week 24): 1 | number of patients with ≥1 SAEs ([1]; after week 24): 5 patients | number of serious adverse events ([1]; after week 24): 6 events in | SAE Neutropenia (week 36), number of patients ([1]; after week 24, grade 1, normalized with dose reduction): 1 | INR, mean ± standard error ([1]; beginning of extension period (week 24), N=22): 1.06 ± 0.0 | NCCcorrected, mean ± standard error ([1]; beginning of extension period (week 24), N=22, baseline 3.6 ± 0.4): 0.9 ± 0.2 µM | UWDRS part II score, mean ± standard error ([1]; beginning of extension period (week 24), N=22, baseline 6.6 ± 1.9): 4.1 ± 1.8 | MELD score, mean ± standard error ([1]; beginning of extension period (week 24), N=22, baseline 7.7 ± 0.4): 7.2 ± 0.4 | UWDRS part III score, mean ± standard error ([1]; beginning of extension period (week 24), N=22, baseline 22.8 ± 4.0): 16.6 ± 3.9 | Albumin, mean ± standard error ([1]; beginning of extension period (week 24), N=22, baseline 39.2 ± 1.0): 40.9 ± 0.7 g/L | ALT, mean ± standard error ([1]; beginning of extension period (week 24), N=22, baseline 42.6 ± 6.2): 36.8 ± 3.9 U/L | AEs considered unrelated or unlikely related to therapy ([1]; between week 24 and 72): 89% | AEs mild or moderate ([1]; between week 24 and 72): 89% | mean INR, albumin, ALT levels and MELD score (liver function) ([1]; between week 24 and week 72): improved or unchanged | reversible ALT elevations requiring dose adjustments ([1]; extension period): not observed | hemoglobin measurements below the normal range ([1]; over the follow-up period): 5.2% | patients with low hemoglobin at some point ([1]; over the follow-up period, none below 100 g/L): 7 patients | mean UWDRS disability score and neurological signs score ([1]; week 24 to 72): continued improvements | subjects with neutropenia accompanied by mild anemia and low NCC levels ([1]; week 36 and 72, responded to dose reduction): Two | decrease in number of reported AEs and SAEs ([1]; weeks 1-24 to weeks 25-72): around 50% | individuals with deterioration in dystonia item group score ([2]; baseline to week 24): three | individuals with deterioration in gait item group score ([2]; baseline to week 24): six | individuals with deterioration in rigidity item group score ([2]; baseline to week 24): four | mean improvement in UWDRS part III item group total tremor ([2]; baseline to week 24, SD 61.7): 34.2% | mean improvement in UWDRS part III item group limb agility (dexterity) and coordination ([2]; baseline to week 24, SD 72.2): 29.2% | overall deterioration in UWDRS part III item group gait ([2]; baseline to week 24, SD 77.8): 4.2% | overall deterioration in UWDRS part III item group dystonia ([2]; baseline to week 24, SD 135.2): 15.0% | overall deterioration in UWDRS part III item group rigidity ([2]; baseline to week 24, SD 169.6): 26.9% | patients with any deterioration in limb agility and coordination item group score [2, 4]: three | patients with any deterioration in tremor item group score [2, 4]: four | mean improvement (% change) in UWDRS part III item alternating hand movements ([2]; over 24 weeks): 35.0% | mean improvement (% change) in UWDRS part III item handwriting ([2]; over 24 weeks): 51.4% | mean improvement (% change) in UWDRS part III item leg agility ([2]; over 24 weeks): 40.8% | mean improvement (% change) in UWDRS part III item postural arm tremor ([2]; over 24 weeks): 39.5% | patients with ALT elevations requiring dose adjustments ([3]; core study, patients with cirrhosis): five | patients with ALT elevations requiring dose adjustments [3, 5]: seven | patients with study withdrawal associated with ALT elevations [3, 5]: three | patients with adverse events (AEs) ([3]; core study, with cirrhosis): 10 | patients with increased ALT and GGT levels (each) ([3]; core study, with cirrhosis): three | patients with increased AST levels ([3]; core study, with cirrhosis): four | patients with adverse events (AEs) ([3]; core study, without cirrhosis): 12 | patients with increased ALT and GGT levels (each) ([3]; core study, without cirrhosis): five | patients with increased AST levels ([3]; core study, without cirrhosis): four | patients with tremor (AE) ([3]; core study, without cirrhosis): four | patients with SAEs possibly related to WTX101 ([3]; extension phase, cirrhosis group, neutropenia, hepatolenticular degeneration): two | patients who experienced AEs [3, 6]: nine | patients with urinary tract infection [3, 6]: four | patients who experienced AEs ([3]; extension phase, without cirrhosis): six | liver function ([3]; up to 48 weeks, patients with and without cirrhosis): stable | ALT elevations requiring dose adjustments ([3]; week 24 to week 48, regardless of cirrhosis status): no ALT elevations requiring dose adjustments occurred | patients with severe adverse events (SAEs) ([3]; weeks 0-48, with cirrhosis): four | patients with severe adverse events (SAEs) ([3]; weeks 0-48, without cirrhosis): six

Reference: patent US12233088B2 (Alexion Pharmaceuticals, Inc., priority 2017, dated 2025)
